Results on twelve molecules are retold here after paper PMC7993378, “Inhibition of bacterial and human zinc-metalloproteases by bisphosphonate- and catechol-containing compounds” (Journal of Enzyme Inhibition and Medicinal Chemistry, 2021).

For orientation: Ki means the equilibrium dissociation constant of an inhibitor or competing ligand from its target. The inhibition is the percentage by which the read-out fell short of the control.

Molecules are shown by their SMILES. Where two headings read alike, the source gives them in different places.

Type in all cases: biochemical
The target of assay [1] is T1, aureolysin (ALN) (Staphylococcus aureus, UniProt P81177).
T1 construct: purchased BioCentrum Ltd (Kraków, Poland)
T1 sequence (P81177 209-509): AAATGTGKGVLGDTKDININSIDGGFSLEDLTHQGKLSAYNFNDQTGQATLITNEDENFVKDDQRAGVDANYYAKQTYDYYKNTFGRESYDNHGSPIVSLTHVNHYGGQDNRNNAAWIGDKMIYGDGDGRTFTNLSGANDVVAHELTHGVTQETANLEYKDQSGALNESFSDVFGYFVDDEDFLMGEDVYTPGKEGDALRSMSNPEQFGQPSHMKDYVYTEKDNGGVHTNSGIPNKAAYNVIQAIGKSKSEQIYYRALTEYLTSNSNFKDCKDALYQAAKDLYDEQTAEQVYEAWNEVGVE
In words: ALN inhibition, continuous initial rate assay with McaRPPGFSAFK(Dnp)-OH after 15 min preincubation. Particulars: for inhibition at 100 µM: read-out: inhibition (reduction of activity) of ALN, 100 μM compound, 15 min preincubation at 37 °C, 4 μM substrate. How it is done:
(§1) The inhibitorial power of 100 μM of the eight catechol containing compounds was tested against the two human metalloproteases MMP-9(T) and MMP-14 and the three bacterial metalloproteases ALN, PLN and TLN (Figure 1). In order to detect putative slow and slow-tight binding, the catechol derivatives were first incubated along with the enzyme for 15 min at 37 °C. In controls without inhibitor present, enzymes and buffer were preincubated under identical conditions. Thereafter, the enzyme reaction was started by adding the relevant […] substrate and the rate was followed continuously for 30 min. […] The activity was reduced with more than 50%, by MT336 for the two MMPs, by BF482 for MMP-9(T) and by ML33 for ALN (Figure 1). In all other inhibitory studies with catechol containing compounds, the activity was reduced between 0 and 45%.
(§2) To assure that this is correct, the inhibitors BF471 and BF489 were tested against varying McaRPPGFSAFK(Dnp)-OH using TLN as described in the Experimental section. […] It should be noted that the reaction was started by adding the enzyme to the substrate-inhibitor mixtures. In the case of slow binding, the full potential of these inhibitors would not be realised by this inhibitory assay. When the activity was reduced by more than […], experiments were performed with varying concentrations of the catechol derivatives. IC50 values were obtained from dose response plots, and Ki values were determined from the IC50 values based on substrate competitive inhibition. By the use of Ki values, we can compare the binding strength of the compounds for the different enzymes and not only comparing the compounds ability to bind one enzyme. There are several possible explanations for the deviation in determined Ki value of BF471 and BF489 for TLN from the dose response plots and the double inverse plots.
(§3) The various inhibitors were dissolved in 100% DMSO giving an inhibitor concentration of 10 mM. All the inhibitory and control experiments contained a total and fixed concentration of 1.0% DMSO. […] The fixed enzyme concentration were as follows; 0.28 nM MMP-9(T), 0.05 nM MMP-9(A), 1.0 nM MMP-14, 1.4 nM ALN, 0.5 nM PLN and 0.21 nM TLN. Enzymes with and without inhibitors were pre-incubated for 15 min at 37 °C, the initial rate assays were started by adding the substrate and the reaction was followed for 30 min. Assays were performed using a Spectra Max Gemini EM micro-plate reader (Molecular Devices) or a Clario Star micro plate reader (CLARIOstar® BMG LABTECH). Assays were performed at 37 °C, using an excitation wavelength of 320 nm and an emission wavelength of 405 nm with a slit width of 10 nm. The IC50 values were calculated either in Sigma Plot (Enzyme kinetics 1.3 module) or in Graph Pad Prism 5 using Equations (1) or (2) depending on the concentration span of the used inhibitor: (1) vi/v0= 1/(1+ 10^(pIC50−pI)) (2) vi/v0= 1/(1+ [I]/IC50) where vi is the enzyme activity in the presence of inhibitor, v0 the activity in the absence of inhibitor, pI=−log [Inhibitor] in M and pIC50 = −log IC50 in M. All experiments were performed in at least triplicate.

For assay [2], the target named is T2, trypsin-activated MMP-9 from THP-1 cells (MMP-9(T)) (Homo sapiens, UniProt P14780).
T2 construct: endogenous in cells; host or cells: THP-1 cells stimulated with PMA
T2 sequence (P14780 107-707 limits assumed): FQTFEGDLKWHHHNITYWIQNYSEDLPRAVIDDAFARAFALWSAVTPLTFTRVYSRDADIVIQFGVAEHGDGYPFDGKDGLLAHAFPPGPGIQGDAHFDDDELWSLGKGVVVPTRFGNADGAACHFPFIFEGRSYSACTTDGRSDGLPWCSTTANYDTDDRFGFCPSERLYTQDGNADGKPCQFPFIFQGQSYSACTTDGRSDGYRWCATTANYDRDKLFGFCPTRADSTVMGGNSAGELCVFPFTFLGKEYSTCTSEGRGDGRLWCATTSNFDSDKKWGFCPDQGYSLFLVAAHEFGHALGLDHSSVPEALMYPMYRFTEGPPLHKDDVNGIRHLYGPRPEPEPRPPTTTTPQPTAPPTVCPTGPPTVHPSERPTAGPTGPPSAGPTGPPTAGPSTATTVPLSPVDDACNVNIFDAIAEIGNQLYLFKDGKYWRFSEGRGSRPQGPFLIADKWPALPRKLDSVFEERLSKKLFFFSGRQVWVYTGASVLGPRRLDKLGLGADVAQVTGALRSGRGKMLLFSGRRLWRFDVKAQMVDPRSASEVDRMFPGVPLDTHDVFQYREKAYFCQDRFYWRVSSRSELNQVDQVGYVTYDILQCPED
The assay can be described thus: MMP-9(T) inhibition, continuous initial rate assay with McaPLGL(Dpa)AR-NH2 after 15 min preincubation. Particulars: for inhibition at 100 µM: read-out: inhibition (reduction of activity) of MMP-9(T); for Ki: substrate McaPLGL(Dpa)AR-NH2 4 µM, 4–6 experiments, read-out: Ki ± sd MMP-9(T). How it is done: as §1, §2
The purified proMMP-9 was activated by trypsin, by mixing approximately 300 µg of proMMP-9 with trypsin (31 μg/ml) for 10 min at 37 °C in 0.1 M Hepes pH 7.5, 0.005% Brij35% and 10 mM CaCl2. The activation and processing of MMP-9 were terminated by adding a 50 times excess of SBTI (2.7 mg/ml) in relation to trypsin and after 10 min incubation at room temperature, the mixture was transferred and kept on ice during the kinetic and inhibition kinetic measurements. After activation, the activity was determined with 10 µM of McaPLGL(Dpa)AR-NH2 in 0.1 M Hepes pH 7.5, 0.005% Brij35% and 10 mM CaCl2 in a total assay volume of 100 µL, at 37 °C. Initial rates were measured at an excitation wavelength of 320 nm and an emission wavelength of 405 nm with a slit width of 10 nm using a Perkin Elmer LS 50 Luminescence spectrometer and the FL WinLab Software Package (Perkin Elmer). The amount of active MMP-9 was determined by active site titration using galardin as described previously.
The various inhibitors were dissolved in 100% DMSO giving an inhibitor concentration of 10 mM. All the inhibitory and control experiments contained a total and fixed concentration of 1.0% DMSO. […] The fixed enzyme concentration were as follows; 0.28 nM MMP-9(T), 0.05 nM MMP-9(A), 1.0 nM MMP-14, 1.4 nM ALN, 0.5 nM PLN and 0.21 nM TLN. Enzymes with and without inhibitors were pre-incubated for 15 min at 37 °C, the initial rate assays were started by adding the substrate and the reaction was followed for 30 min. Assays were performed using a Spectra Max Gemini EM micro-plate reader (Molecular Devices) or a Clario Star micro plate reader (CLARIOstar® BMG LABTECH). Assays were performed at 37 °C, using an excitation wavelength of 320 nm and an emission wavelength of 405 nm with a slit width of 10 nm. […]

For assay [3], the target named is T3, thermolysin (TLN) (Bacillus thermoproteolyticus, UniProt P00800).
T3 construct: purchased Calbiochem (San Diego, CA, USA)
T3 sequence (P00800 233-548): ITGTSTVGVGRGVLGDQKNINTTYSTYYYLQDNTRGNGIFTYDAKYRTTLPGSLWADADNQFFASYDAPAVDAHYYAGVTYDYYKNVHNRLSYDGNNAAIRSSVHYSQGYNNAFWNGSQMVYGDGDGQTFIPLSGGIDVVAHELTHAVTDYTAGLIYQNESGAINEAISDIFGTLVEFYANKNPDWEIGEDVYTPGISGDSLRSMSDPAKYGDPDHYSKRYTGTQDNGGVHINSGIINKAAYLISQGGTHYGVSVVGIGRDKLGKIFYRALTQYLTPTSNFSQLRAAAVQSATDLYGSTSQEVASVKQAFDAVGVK
The assay can be described thus: TLN inhibition, continuous initial rate assay with McaRPPGFSAFK(Dnp)-OH after 15 min preincubation. Particulars: for inhibition at 100 µM: 100 μM compound, 15 min preincubation at 37 °C, 4 μM substrate, read-out: inhibition (reduction of activity) of TLN; for Ki: substrate McaRPPGFSAFK(Dnp)-OH 4 µM, 4–6 experiments, read-out: Ki ± sd TLN. The procedure: as §1, §2, §3

Assay [4] addresses T4, Human MT1-MMP/MMP-14 (catalytic domain) (Homo sapiens, UniProt P50281).
T4 construct: Human MT1-MMP/MMP-14 (catalytic domain); purchased Calbiochem (San Diego, CA, USA)
In words: MMP-14 inhibition, continuous initial rate assay with McaPLGL(Dpa)AR-NH2 after 15 min preincubation. Particulars: for inhibition at 100 µM: 100 μM compound, 15 min preincubation at 37 °C, 4 μM substrate, read-out: inhibition (reduction of activity) of MMP-14; for Ki: substrate McaPLGL(Dpa)AR-NH2 4 µM, 4–6 experiments, read-out: Ki ± sd MMP-14. The procedure: as §1, §2, §3

The target in assay [5] is T5, TLN (Bacillus thermoproteolyticus, UniProt P00800).
T5 construct: purchased Calbiochem (San Diego, CA, USA)
T5 sequence (P00800 233-548): as above
In words: TLN inhibition against varying McaRPPGFSAFK(Dnp)-OH, reaction started by adding enzyme (double inverse plots). Particulars: no preincubation, read-out: Ki TLN from varying substrate. The procedure: as §2

Assay [6] addresses T6, pseudolysin (PLN) (Pseudomonas aeruginosa, UniProt P14756).
T6 construct: purchased Calbiochem (San Diego, CA, USA)
In words: PLN inhibition, continuous initial rate assay with McaRPPGFSAFK(Dnp)-OH after 15 min preincubation. Particulars: for inhibition at 100 µM: read-out: inhibition (reduction of activity) of PLN. How it is done: as §1, §2, §3

Assay [7] concerns the target APMA-activated recombinant MMP-9 (rMMP-9(A)) (Homo sapiens, UniProt P14780). In words: rMMP-9(A) inhibition in Tris-HCl buffer with varied preincubation time, followed continuously for 3 h. Particulars: 100 µM, 0.1 M Tris-HCl pH 7.5, N = 4. The source says:
Except for ML33, all catechol derivatives have previously been tested for binding to MMP-2, MMP-8 and MMP-9[60]. […] The Ki values for MMP-9 in the present study were higher than the IC50 values in the previous study, the exception was MT336 for which we obtained a lower value. It is not easy to point out a single factor in the experiments contributing to deviations between the studies. Both studies used a pH of 7.5 but the buffer compositions were slightly different. […] Tauro et al.[60] used a commercial active MMP-9 produced in E-coli that only contained the catalytic domain and the fibronectin-like (FnII) module. […] A factor that may contribute to differences is that after preincubation of MMP-9 with catechol derivatives and adding of the substrate for starting the reaction, we followed the reaction continuously for 30 min, while Tauro et al.[60] used an endpoint assay allowing the reaction to proceed for 2 to 4 h before the fluorescence was measured. We did some tests to determine if some of these differences could affect the binding results. In the test experiments, we used rMMP-9(A) which differs from the MMP-9(T) by a slightly different N-terminal and a largely truncated C-terminal HPX domain[57]. One hundred µM of BF466 was tested where the 0.1 M Hepes buffer pH 7.5 was exchanged to a 0.1 M Tris-HCl buffer pH 7.5. The rMMP-9(A) was preincubated with BF466 for 0, 15 and 30 min at 37 °C and the reaction was started by the addition of the substrate McaPLGL(Dpa)AR-NH2 (4 µM in the assay) following the reaction continuously for 3 h. The controls without BF466 were treated identically. […] The reaction was allowed to proceed for 4 h, and the reaction was stopped by addition of EDTA (end concentration 10 mM) and the relative fluorescence intensity determined.
The expression and purification of recombinant human full-length proMMP-9 (rpMMP-9) from Sf9 insect cells were performed as described previously. […] The amount of active MMP-9 was determined by active site titration using galardin also described previously.

Setting [8] is: 100 μM compound, 15 min preincubation at 37 °C, 4 μM substrate.
The mark [9] stands for this setting: catechol compounds, Ki from IC50, substrate competitive.

T6 sequence (P14756 198-498): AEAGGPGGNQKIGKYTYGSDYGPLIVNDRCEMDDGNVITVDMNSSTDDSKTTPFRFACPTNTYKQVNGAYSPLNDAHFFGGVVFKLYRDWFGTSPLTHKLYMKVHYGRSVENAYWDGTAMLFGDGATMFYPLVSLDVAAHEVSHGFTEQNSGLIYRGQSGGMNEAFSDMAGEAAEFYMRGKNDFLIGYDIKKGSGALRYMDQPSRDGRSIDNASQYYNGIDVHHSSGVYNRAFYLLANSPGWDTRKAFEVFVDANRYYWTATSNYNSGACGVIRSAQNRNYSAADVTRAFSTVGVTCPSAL
Sequence of APMA-activated recombinant MMP-9 (rMMP-9(A)) (P14780 107-444 limits assumed): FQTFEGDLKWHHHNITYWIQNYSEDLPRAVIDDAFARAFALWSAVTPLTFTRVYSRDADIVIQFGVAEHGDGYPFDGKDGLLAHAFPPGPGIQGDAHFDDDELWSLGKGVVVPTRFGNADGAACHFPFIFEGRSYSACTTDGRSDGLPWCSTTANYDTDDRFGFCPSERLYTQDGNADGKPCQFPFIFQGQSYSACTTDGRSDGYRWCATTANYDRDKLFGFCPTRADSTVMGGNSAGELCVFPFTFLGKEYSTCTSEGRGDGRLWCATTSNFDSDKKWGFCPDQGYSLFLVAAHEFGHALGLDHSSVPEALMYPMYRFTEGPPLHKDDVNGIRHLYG

For the molecule `O=S(=O)(Nc1ccc(O)c(O)c1)c1ccc(-c2ccccc2)cc1` [BF471], the Ki was 49 ± 5 µM in assay [1]; 13 ± 2 µM in assay [2] (setting [9]); 13 ± 2 µM in assay [3] (setting [9]); 57 ± 6 µM in assay [5]; 9 ± 3 µM in assay [6]. In addition, the inhibition at 100 µM in assay [1], in assay [2] (setting [8]), in assay [3], in assay [4] and in assay [6] was > 50% in each case.

As to `O=S(=O)(Nc1ccc(O)c(O)c1)c1ccc(Br)cc1` [BF489], the inhibition at 100 µM in assay [1], in assay [2] (setting [8]), in assay [3], in assay [4] and in assay [6] was > 50% throughout. Moreover, the Ki was found to be 12.6 ± 0.6 µM in assay [2] (setting [9]); 14 ± 5 µM in assay [3] (setting [9]); 8.3 ± 0.6 µM in assay [4] (setting [9]); 73 ± 11 µM in assay [5]; 16 ± 3 µM in assay [6].

Consider `O=S(=O)(NCc1ccc(O)c(O)c1)c1ccc(Br)cc1` [BF486], for which, in assay [2] (setting [8]), the “inhibition (reduction of activity) of MMP-9(T)” value is recorded as “did not affect”.

As for `COc1ccc(S(=O)(=O)Nc2cccc(O)c2O)cc1` [ML33], the inhibition at 100 µM in assay [1] was > 50%.

On to `O=S(=O)(NCc1cccc(O)c1O)c1ccc(-c2ccccc2)cc1` [BF466], for which the “vi/v0 rMMP-9(A)” value is recorded as 0.74 ± 0.04 in assay [7] (preincubation 0 min at 37 °C), 0.68 ± 0.02 in assay [7] (preincubation 15 min at 37 °C) and 0.73 ± 0.05 in assay [7] (preincubation 30 min at 37 °C).

Take `O=S(=O)(Nc1cccc(O)c1O)c1ccc(-c2ccccc2)cc1` [ML32]: the inhibition at 100 µM in assay [1], in assay [2] (setting [8]), in assay [4] and in assay [6] was > 50% throughout. The Ki in assay [2] (setting [9]) was found to be 51 ± 17 µM; in assay [4] (setting [9]) it was 19 ± 0.8 µM; in assay [6] it was 38 ± 8 µM.

For the molecule `O=S(=O)(NCc1cccc(O)c1O)c1ccc(Br)cc1` [BF482], the inhibition at 100 µM in assay [2] (setting [8]) was > 50%. Also, the “inhibition (reduction of activity) of PLN” value in assay [6] (setting [8]) is listed as “did not affect”.

In the case of `O=P(O)(O)C(Nc1ccc(Cl)cc1)P(=O)(O)O` [ML45], the Ki was found to be 17 ± 1 µM in assay [4] (bisphosphonates) and 37 ± 6 µM in assay [6].

As to `O=[N+]([O-])c1ccc(S(=O)(=O)NC(P(=O)(O)O)P(=O)(O)O)cc1` [RC2], the Ki stood at 16.2 ± 0.4 µM in assay [3] (bisphosphonates) and 22 ± 3 µM in assay [6].

Regarding `O=C(NCc1ccc(-c2ccccc2)cc1)c1cccc(O)c1O` [MT336], the inhibition at 100 µM in assay [2] (setting [8]) and in assay [4] was > 50% in each case. The results for the Ki in assay [2] (setting [9]) and in assay [4] (setting [9]) were 13 ± 1 µM and 12 ± 1 µM, respectively.

`COc1ccc(S(=O)(=O)NC(P(=O)(O)O)P(=O)(O)O)cc1` [LS4]: the Ki in assay [6] was 58 ± 4 µM.

Turning to `O=P(O)(O)C(Nc1ccc(-c2ccccc2)cc1)P(=O)(O)O` [MT363], the Ki came out at 6.6 ± 0.4 µM in assay [2] (bisphosphonates), 7 ± 1 µM in assay [3] (bisphosphonates), 7.2 ± 0.6 µM in assay [4] (bisphosphonates) and 12 ± 4 µM in assay [6].
